Reference: US9695155B2, “Herbicidal substituted pyrimidinyloxy benzene compounds” (E. I. DU PONT DE NEMOURS AND COMPANY, priority 2013, dated 2017)

Tests used:
barnyardgrass [1] = test: Test A preemergence; format: in vivo, Echinochloa crus-galli; settings: for Barnyardgrass plant response rating (0 to 100 scale, 0 is no effect, 100 is complete control): 125 g ai/ha
How it was run: (§1)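 Injury scores run from 0, no effect, to 100, complete control, judged by eye against untreated plants roughly 10 days after treatment. Chemicals carried a surfactant in a non-phytotoxic solvent and went onto loam–sand soil preemergence or onto one- to two-leaf seedlings postemergence.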

large (Lg) crabgrass [2] = test: Test A preemergence; format: in vivo, Digitaria sanguinalis; settings: for Crabgrass, Large plant response rating (0 to 100 scale): 125 g ai/ha
How it was run: as §1

giant foxtail [3] = test: Test A preemergence; format: in vivo, Setaria faberii; settings: for Foxtail, Giant plant response rating (0 to 100 scale): 125 g ai/ha
How it was run: as §1

morningglory [4] = test: Test A preemergence; format: in vivo, Ipomoea spp.; settings: for Morningglory plant response rating (0 to 100 scale): 125 g ai/ha
How it was run: as §1

pigweed [5] = test: Test A preemergence; format: in vivo, Amaranthus retroflexus; settings: for Pigweed plant response rating (0 to 100 scale): 125 g ai/ha
How it was run: as §1

velvetleaf [6] = test: Test A preemergence; format: in vivo, Abutilon theophrasti; settings: for Velvetleaf plant response rating (0 to 100 scale): 125 g ai/ha
How it was run: as §1

wheat [7] = test: Test A preemergence; format: in vivo, Triticum aestivum; settings: for Wheat plant response rating (0 to 100 scale): 125 g ai/ha
How it was run: as §1

corn [8] = test: Test A preemergence; format: in vivo, Zea mays; settings: for Corn plant response rating (0 to 100 scale): 125 g ai/ha
How it was run: as §1

barnyardgrass [9] = test: Test A postemergence; format: in vivo, Echinochloa crus-galli; settings: for Barnyardgrass plant response rating: 125 g ai/ha
How it was run: as §1

large (Lg) crabgrass [10] = test: Test A postemergence; format: in vivo, Digitaria sanguinalis; settings: for Crabgrass, Large plant response rating: 125 g ai/ha
How it was run: as §1

giant foxtail [11] = test: Test A postemergence; format: in vivo, Setaria faberii; settings: for Foxtail, Giant plant response rating: 125 g ai/ha
How it was run: as §1

morningglory [12] = test: Test A postemergence; format: in vivo, Ipomoea spp.; settings: for Morningglory plant response rating: 125 g ai/ha
How it was run: as §1

pigweed [13] = test: Test A postemergence; format: in vivo, Amaranthus retroflexus; settings: for Pigweed plant response rating: 125 g ai/ha
How it was run: as §1

velvetleaf [14] = test: Test A postemergence; format: in vivo, Abutilon theophrasti; settings: for Velvetleaf plant response rating: 125 g ai/ha
How it was run: as §1

wheat [15] = test: Test A postemergence; format: in vivo, Triticum aestivum; settings: for Wheat plant response rating: 125 g ai/ha
How it was run: as §1

corn [16] = test: Test A postemergence; format: in vivo, Zea mays; settings: for Corn plant response rating: 125 g ai/ha
How it was run: as §1

rice = test: Test B flooded paddy test; format: in vivo, Oryza sativa; settings: Flood, 250 g ai/ha; 0 to 100 scale where 0 is no effect and 100 is complete control
How it was run: (§2)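 Seedlings are raised to two leaves, flooded to a depth of 3 cm and dosed by adding the compound to the floodwater. Water level is kept constant, and plants are scored visually versus controls 13–15 days later (0 = no effect, 100 = complete control).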

sedge, umbrella = test: Test B flooded paddy test; format: in vivo, Cyperus difformis; settings: Flood, 250 g ai/ha; 0 to 100 scale where 0 is no effect and 100 is complete control
How it was run: as §2

Heteranthera limosa = test: Test B flooded paddy test; format: in vivo; settings: Flood, 250 g ai/ha; 0 to 100 scale where 0 is no effect and 100 is complete control
How it was run: as §2

barnyardgrass [17] = test: Test B flooded paddy test; format: in vivo, Echinochloa crus-galli; settings: Flood, 250 g ai/ha; 0 to 100 scale where 0 is no effect and 100 is complete control
How it was run: as §2

[18] = 500 g ai/ha, 0 to 100 scale where 0 is no effect and 100 is complete control
[19] = 0 to 100 scale where 0 is no effect and 100 is complete control
[20] = 1000 g ai/ha, 0 to 100 scale, 0 no effect, 100 complete control, approx. 10 days
[21] = 1000 g ai/ha, 0 to 100 scale, 0 no effect, 100 complete control

Structure (SMILES)	Barnyardgrass plant response rating (0 to 100 scale, 0 is no effect, 100 is complete control) (barnyardgrass [1])	Barnyardgrass plant response rating (barnyardgrass [1]; [18])	Crabgrass, Large plant response rating (0 to 100 scale) (large (Lg) crabgrass [2])	Crabgrass, Large plant response rating (large (Lg) crabgrass [2]; [18])	Foxtail, Giant plant response rating (0 to 100 scale) (giant foxtail [3])	Foxtail, Giant plant response rating (giant foxtail [3]; [18])	Morningglory plant response rating (0 to 100 scale) (morningglory [4])	Morningglory plant response rating (morningglory [4]; [18])	Pigweed plant response rating (0 to 100 scale) (pigweed [5])	Pigweed plant response rating (pigweed [5]; [18])	Velvetleaf plant response rating (0 to 100 scale) (velvetleaf [6])	Velvetleaf plant response rating (velvetleaf [6]; [18])	Wheat plant response rating (0 to 100 scale) (wheat [7])	Wheat plant response rating (wheat [7]; [18])	Corn plant response rating (0 to 100 scale) (corn [8])	Corn plant response rating (corn [8]; [18])	Plant response rating, Rice (rice)	Plant response rating, Sedge, Umbrella (sedge, umbrella)	Plant response rating, Ducksalad (Heteranthera limosa)	Plant response rating, Barnyardgrass (barnyardgrass [17])	also measured
N#Cc1cnc(Oc2cccc(C#N)c2-n2cc(Br)cn2)nc1 [Compound 214]	0	0	0	0	0	0	0	0	0	0	0	0	0	0	0	0	0	0	0	0	Barnyardgrass plant response rating (barnyardgrass [9]; [19]): 0; Plant response rating, Barnyardgrass (barnyardgrass [9]; [18]): 0; Crabgrass, Large plant response rating (large (Lg) crabgrass [10]; [19]): 0; Plant response rating, Crabgrass, Large (large (Lg) crabgrass [10]; [18]): 0; Foxtail, Giant plant response rating (giant foxtail [11]; [19]): 0; Plant response rating, Foxtail, Giant (giant foxtail [11]; [18]): 0; Morningglory plant response rating (morningglory [12]; [19]): 0; Plant response rating, Morningglory (morningglory [12]; [18]): 0; Pigweed plant response rating (pigweed [13]; [19]): 0; Plant response rating, Pigweed (pigweed [13]; [18]): 0; Velvetleaf plant response rating (velvetleaf [14]; [19]): 0; Plant response rating, Velvetleaf (velvetleaf [14]; [18]): 0; Wheat plant response rating (wheat [15]; [19]): 0; Plant response rating, Wheat (wheat [15]; [18]): 0; Corn plant response rating (corn [16]; [19]): 0; Plant response rating, Corn (corn [16]; [18]): 0
C#Cc1cnc(Oc2cccc(C#N)c2-n2cc(Br)cn2)nc1 [Compound 215]	0	10	20	80	0	50	0	0	90	100	0	10	0	0	0	0	0	0	0	0	Barnyardgrass plant response rating (barnyardgrass [9]; [19]): 0; Plant response rating, Barnyardgrass (barnyardgrass [9]; [18]): 30; Crabgrass, Large plant response rating (large (Lg) crabgrass [10]; [19]): 10; Plant response rating, Crabgrass, Large (large (Lg) crabgrass [10]; [18]): 30; Foxtail, Giant plant response rating (giant foxtail [11]; [19]): 0; Plant response rating, Foxtail, Giant (giant foxtail [11]; [18]): 10; Morningglory plant response rating (morningglory [12]; [19]): 10; Plant response rating, Morningglory (morningglory [12]; [18]): 10; Pigweed plant response rating (pigweed [13]; [19]): 70; Plant response rating, Pigweed (pigweed [13]; [18]): 80; Velvetleaf plant response rating (velvetleaf [14]; [19]): 40; Plant response rating, Velvetleaf (velvetleaf [14]; [18]): 50; Wheat plant response rating (wheat [15]; [19]): 0; Plant response rating, Wheat (wheat [15]; [18]): 0; Corn plant response rating (corn [16]; [19]): 0; Plant response rating, Corn (corn [16]; [18]): 20
Clc1cnc(Oc2ccccc2-n2ccnn2)nc1 [Compound 217]	–	–	–	–	–	–	–	–	–	–	–	–	–	–	–	–	0	0	0	0	Barnyardgrass plant response rating (barnyardgrass [1]; [20]): 70; Crabgrass, Large plant response rating (large (Lg) crabgrass [2]; [20]): 100; Foxtail, Giant plant response rating (giant foxtail [3]; [20]): 90; Morningglory plant response rating (morningglory [4]; [20]): 40; Pigweed plant response rating (pigweed [5]; [20]): 100; Velvetleaf plant response rating (velvetleaf [6]; [20]): 100; Wheat plant response rating (wheat [7]; [20]): 0; Corn plant response rating (corn [8]; [20]): 0; Plant response rating, Barnyardgrass (barnyardgrass [9]; [21]): 30; Plant response rating, Crabgrass, Large (large (Lg) crabgrass [10]; [21]): 60; Plant response rating, Foxtail, Giant (giant foxtail [11]; [21]): 50; Plant response rating, Morningglory (morningglory [12]; [21]): 90; Plant response rating, Pigweed (pigweed [13]; [21]): 100; Plant response rating, Velvetleaf (velvetleaf [14]; [21]): 100; Plant response rating, Wheat (wheat [15]; [21]): 20; Plant response rating, Corn (corn [16]; [21]): 0
COc1cnc(Oc2cccc(C#N)c2-n2cc(Br)cn2)nc1 [Compound 218]	10	70	80	100	20	100	0	10	100	100	10	50	0	0	0	0	0	40	50	0	Barnyardgrass plant response rating (barnyardgrass [9]; [19]): 30; Plant response rating, Barnyardgrass (barnyardgrass [9]; [18]): 70; Crabgrass, Large plant response rating (large (Lg) crabgrass [10]; [19]): 50; Plant response rating, Crabgrass, Large (large (Lg) crabgrass [10]; [18]): 70; Foxtail, Giant plant response rating (giant foxtail [11]; [19]): 20; Plant response rating, Foxtail, Giant (giant foxtail [11]; [18]): 70; Morningglory plant response rating (morningglory [12]; [19]): 70; Plant response rating, Morningglory (morningglory [12]; [18]): 90; Pigweed plant response rating (pigweed [13]; [19]): 90; Plant response rating, Pigweed (pigweed [13]; [18]): 100; Velvetleaf plant response rating (velvetleaf [14]; [19]): 30; Plant response rating, Velvetleaf (velvetleaf [14]; [18]): 100; Wheat plant response rating (wheat [15]; [19]): 0; Plant response rating, Wheat (wheat [15]; [18]): 20; Corn plant response rating (corn [16]; [19]): 0; Plant response rating, Corn (corn [16]; [18]): 40
Clc1cnc(Oc2cccc(Cl)c2-n2cc(Br)cn2)nc1 [Compound 219]	30	90	100	100	100	100	0	10	100	100	10	20	0	0	0	10	0	85	100	0	Barnyardgrass plant response rating (barnyardgrass [9]; [19]): 50; Plant response rating, Barnyardgrass (barnyardgrass [9]; [18]): 100; Crabgrass, Large plant response rating (large (Lg) crabgrass [10]; [19]): 90; Plant response rating, Crabgrass, Large (large (Lg) crabgrass [10]; [18]): 100; Foxtail, Giant plant response rating (giant foxtail [11]; [19]): 70; Plant response rating, Foxtail, Giant (giant foxtail [11]; [18]): 90; Morningglory plant response rating (morningglory [12]; [19]): 70; Plant response rating, Morningglory (morningglory [12]; [18]): 100; Pigweed plant response rating (pigweed [13]; [19]): 100; Plant response rating, Pigweed (pigweed [13]; [18]): 100; Velvetleaf plant response rating (velvetleaf [14]; [19]): 100; Plant response rating, Velvetleaf (velvetleaf [14]; [18]): 100; Wheat plant response rating (wheat [15]; [19]): 0; Plant response rating, Wheat (wheat [15]; [18]): 70; Corn plant response rating (corn [16]; [19]): 20; Plant response rating, Corn (corn [16]; [18]): 70
